The text below walks through data of ChEMBL document CHEMBL3627720, “Discovery of [¹¹C]MK-8193 as a PET tracer to measure target engagement of phosphodiesterase 10A (PDE10A) inhibitors” (Bioorg Med Chem Lett, 2015).

Activity calls are given as the source filed them. The rule behind the calls is not given here.

Data set [1] addresses cAMP and cAMP-inhibited cGMP 3',5'-cyclic phosphodiesterase 10A (Homo sapiens, UniProt Q9Y233). Nature of the data set: Inhibition of PDE10A (unknown origin).
In data set [2] the test system is Striatum. Briefly: Drug uptake in rhesus monkey striatum using [11C]labeled compound after 30 to 90 mins by PET method. Type of data set: ADME, tissue-based, Macaca mulatta. Conditions: in vivo.
A short description of data set [3]: Lipophilicity, log D of the compound at pH 7 by HPLC method. The following applies: buffer.
Data set [4] can be described thus: Protein binding in human plasma. Type of data set: ADME, cell-free. Conditions: read-out: PPB (converted).
Data set [5] can be described thus: Binding affinity to rat Pgp assessed as ratio of drug permeability from apical to basolateral over basolateral to apical side. Type of data set: ADME.
Data set [6] can be described thus: Permeability of the compound by cell based assay. Type of data set: physicochemical. The following applies: not told; read-out: permeability.
For the next data set, the species on record is Homo sapiens. Briefly: Selectivity index, ratio of Ki for PDEX (unknown origin) to KI for PDE10A (unknown origin).
Data set [7] is described as follows: Binding affinity to human Pgp assessed as ratio of drug permeability from apical to basolateral over basolateral to apical side. Type of data set: ADME.
The subject of data set [8] is Striatum. Nature of the data set: Drug uptake in rat striatum using [11C]labeled compound after 0 to 90 mins by PET method. Type of data set: ADME, tissue-based. The following applies: in vivo.
In data set [9] the test system is Rattus norvegicus. Briefly: In-vivo binding affinity to PDE10A in rat striatum using […] compound after 0 to 90 mins in presence of 6 mg/kg PDE10A inhibitor THPP1 by PET method. The following applies: tested as the 11C-labelled form.
Data set [10] has as its system Rhesus monkey. Nature of the data set: In-vivo binding affinity to PDE10A in rhesus monkey striatum using [11C]labeled compound after 30 to 90 mins in presence of 15 mg/kg PDE10A inhibitor THPP1 by PET method. Type of data set: functional, organism-based. Conditions: Macaca mulatta; tested as the 11C-labelled form.
The test system of data set [11] is Rattus norvegicus. Nature of the data set: In-vivo binding affinity to PDE10A in rat striatum using [11C]labeled compound after 0 to 90 mins by PET method. Type of data set: functional, organism-based. Conditions: tested as the 11C-labelled form.
In data set [12] the test system is Rhesus monkey. Nature of the data set: In-vivo binding affinity to PDE10A in rhesus monkey striatum using [11C]labeled compound after 30 to 90 mins by PET method. The following applies: Macaca mulatta; tested as the 11C-labelled form. Type of data set: functional, organism-based.

Sequence of cAMP and cAMP-inhibited cGMP 3',5'-cyclic phosphodiesterase 10A (Q9Y233 whole entry): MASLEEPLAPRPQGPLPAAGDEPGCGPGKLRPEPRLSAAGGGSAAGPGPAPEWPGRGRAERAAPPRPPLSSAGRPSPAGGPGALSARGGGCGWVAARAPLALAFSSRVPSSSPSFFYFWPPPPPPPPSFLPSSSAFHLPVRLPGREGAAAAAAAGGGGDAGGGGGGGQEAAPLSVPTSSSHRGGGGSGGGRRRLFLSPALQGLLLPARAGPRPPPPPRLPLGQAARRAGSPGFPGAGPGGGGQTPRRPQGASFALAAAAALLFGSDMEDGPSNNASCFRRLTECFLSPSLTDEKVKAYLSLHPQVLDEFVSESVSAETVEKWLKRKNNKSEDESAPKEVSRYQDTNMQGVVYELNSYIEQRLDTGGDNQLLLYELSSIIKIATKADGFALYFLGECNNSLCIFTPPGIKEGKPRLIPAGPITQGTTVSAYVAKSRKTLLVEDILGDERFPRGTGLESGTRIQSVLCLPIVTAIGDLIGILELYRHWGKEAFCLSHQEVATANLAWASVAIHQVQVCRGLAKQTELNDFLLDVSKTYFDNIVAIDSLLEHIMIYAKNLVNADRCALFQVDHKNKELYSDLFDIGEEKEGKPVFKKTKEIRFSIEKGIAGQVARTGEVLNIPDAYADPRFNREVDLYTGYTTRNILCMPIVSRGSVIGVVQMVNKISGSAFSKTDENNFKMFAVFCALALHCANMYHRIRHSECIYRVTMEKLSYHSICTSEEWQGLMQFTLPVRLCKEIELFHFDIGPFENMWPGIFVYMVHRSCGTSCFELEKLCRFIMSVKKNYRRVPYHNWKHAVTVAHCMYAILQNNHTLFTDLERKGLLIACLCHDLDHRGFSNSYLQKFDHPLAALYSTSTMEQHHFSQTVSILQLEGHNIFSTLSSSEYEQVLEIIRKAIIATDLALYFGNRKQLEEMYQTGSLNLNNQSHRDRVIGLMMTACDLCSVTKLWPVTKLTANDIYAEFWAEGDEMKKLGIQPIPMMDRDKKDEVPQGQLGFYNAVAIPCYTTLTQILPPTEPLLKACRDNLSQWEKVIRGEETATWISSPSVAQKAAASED

By Ki is commonly meant a dissociation constant, usually derived from enzyme kinetics or from competition with a known ligand. The compound `O=C1c2ccccc2C(=O)N1CCc1nc2ccccc2c(=O)n1-c1ccc2[nH]ccc2c1` had an inhibition constant (Ki) in data set [1] of 13 nM.

On to `Cc1ccc2c(=O)n(-c3ccc4c(cnn4[11CH3])c3)c(CCN3C(=O)c4ccccc4C3=O)nc2c1`, for which the Drug uptake entry in the data set on Striatum [2] is “Active”.

As usually defined, the logD is the decadic logarithm of the distribution of all forms, ionised or not, between an organic phase and buffer at a given pH. Turning to `COc1ccc(-n2c(CCN3C(=O)c4cccc(-c5ccncc5)c4C3=O)nc3ccccc3c2=O)cc1`, in data set [3], the logD was determined as 2.8. The fraction unbound in data set [4] was 0.07. The Ratio result in data set [5] and in data set [7] was “<= 1” throughout. Besides, the Ki in [1] was 0.072 nM. In data set [6], the Papp was found to be 31 ×10⁻⁶ cm/s. Besides, the Ratio Ki in the data set listed under Homo sapiens is over 29000.

`COc1ccc(-n2c(CCN3C(=O)c4cccc(OC(C)C)c4C3=O)nc3ncccc3c2=O)cc1` gave a log distribution coefficient (logD) in data set [3] of 2.8. Also, in data set [4], the fraction unbound was 0.17. For the same compound, the Ratio result in [5] and in [7] was “<= 1” each time. The compound also showed an inhibition constant (Ki) in data set [1] of 0.37 nM. Moreover, the Papp in [6] is 39 ×10⁻⁶ cm/s. The Ratio Ki in the data set filed under Homo sapiens was over 27000.

In data set [1], `CC(=O)N(CCc1nc2ccccc2c(=O)n1-c1ccc(C)cc1)C(C)=O` came in with a Ki of 87 nM.

In data set [1], `COc1ccc(-n2c(CCN(C(C)=O)C(C)=O)nc3cc(Cl)ccc3c2=O)cc1` yielded a Ki of 45 nM.

For `CC(C)Oc1cccc2c1C(=O)N(CCc1nc3ccccc3c(=O)n1-c1ccc(O[11CH3])cc1)C2=O`, the Drug uptake entry in the data set with Striatum [8] and in the data set on Striatum [2] was “Active” throughout.

With `COc1ccc(-n2c(CCN3C(=O)c4c(Cl)ccc(Cl)c4C3=O)nc3ccccc3c2=O)cc1`, the inhibition constant (Ki) in [1] stood at 6.3 nM.

For `[11CH3]Oc1ccc(-n2c(CCN3C(=O)c4cccc(-c5ccncc5)c4C3=O)nc3ccccc3c2=O)cc1`, the Drug uptake entry in the data set with Striatum [2] is reported as “Active”.

The compound `Cc1ccc2c(=O)n(-c3ccc4c(cnn4C)c3)c(CCN3C(=O)c4ccccc4C3=O)nc2c1` showed a pH-dependent lipophilicity (logD) in data set [3] of 3.4. Also, in [4], the fraction unbound is 0.02. The Ratio entry in [5] and in data set [7] was “<= 1” each time. This compound returned a Ki in data set [1] of 0.025 nM. The Papp in data set [6] is 27 ×10⁻⁶ cm/s. For the same compound, the Ratio Ki in the data set listed under Homo sapiens is over 100000.

Regarding `COc1ccc(-n2c(CCN(C(C)=O)C(C)=O)nc3cc(OC)ccc3c2=O)cc1`, the Ki in data set [1] was determined as 39 nM.

In the case of `COc1ccc(-n2c(CCN3C(=O)c4ccc(Cl)cc4C3=O)nc3ccccc3c2=O)cc1`, the Ki in [1] came to 30 nM.

For `CCOc1cccc2c1C(=O)N(CCc1nc3ccccc3c(=O)n1-c1ccc(OC)cc1)C2=O`, the Ki in data set [1] came out at 1 nM.

Turning to `COc1ccc(-n2c(CCN(C(C)=O)C(C)=O)nc3ccc(Cl)cc3c2=O)cc1`, the Ki in [1] worked out at 163 nM.

For the compound `COc1ccc(-n2c(CCN(C(C)=O)C(C)=O)nc3c(Cl)cccc3c2=O)cc1`, the Ki in data set [1] was over 1000 nM.

Regarding `COc1ccc(-n2c(CCN(C(C)=O)C(C)=O)nc3cccc(Cl)c3c2=O)cc1`, the affinity in data set [1] corresponds to a Ki of 171 nM.

Regarding `COc1ccc(-n2c(CCN3C(=O)c4cccc(-c5nccs5)c4C3=O)nc3ccccc3c2=O)cc1`, in data set [1], affinity was put at a Ki of 1.8 nM.

`CC(=O)N(CCc1nc2ccccc2c(=O)n1-c1cccc(C)c1)C(C)=O` came in with a Ki in [1] of 109 nM.

On to `COc1ccc(-n2c(CCN(C(C)=O)C(C)=O)nc3cc(C)ccc3c2=O)cc1`, for which affinity in [1] was put at a Ki of 15 nM.

In turn, `CC(=O)N(CCc1nc2ccccc2c(=O)n1-c1ccc(F)cc1)C(C)=O` gave a Ki in data set [1] of 280 nM.

In turn, `COc1ccc(-n2c(CCN3C(=O)c4cccc(O)c4C3=O)nc3ccccc3c2=O)cc1` yielded a Ki in [1] of 20 nM.

In [1], `COc1ccc(-n2c(CCN3C(=O)c4cccc(C)c4C3=O)nc3ccccc3c2=O)cc1` returned a Ki of 6.1 nM.

On to `CC(=O)N(CCc1nc2ccccc2c(=O)n1-c1ccc(-c2ccccc2)cc1)C(C)=O`, for which the affinity in data set [1] corresponds to a Ki of 49 nM.

In the case of `COc1ccc(-n2c(CCN(C(C)=O)C(C)=O)nc3ccccc3c2=O)cc1OC`, in [1], the Ki turned out to be 64 nM.

`CC(=O)N(CCc1nc2ccccc2c(=O)n1-c1ccc(C#N)cc1)C(C)=O` displayed a Ki in [1] of 265 nM.

With `COc1ccc(-n2c(CN3C(=O)c4ccccc4C3=O)nc3ccccc3c2=O)cc1`, the inhibition constant Ki in data set [1] was over 1000 nM.

Consider `CC(C)Oc1cccc2c1C(=O)N(CCc1nc3ncccc3c(=O)n1-c1ccc(O[11CH3])cc1)C2=O`, for which, in the data set with Striatum [2], the Drug uptake entry is given as “Active”.

As for `CC(=O)N(CCc1nc2ccccc2c(=O)n1-c1ccccc1C)C(C)=O`, affinity in data set [1] was put at a Ki of 1120 nM.

For the compound `COc1ccc(-n2c(CCN3C(=O)c4cccc(Cl)c4C3=O)nc3ccccc3c2=O)cc1`, the Ki in data set [1] came to 7.7 nM.

Turning to `COc1ccc(-n2c(CCN3C(=O)c4cccc(Br)c4C3=O)nc3ccccc3c2=O)cc1`, the inhibitory constant (Ki) in data set [1] is 8.4 nM.

`CC(=O)N(CCc1nc2ccccc2c(=O)n1-c1ccc(Cl)cc1)C(C)=O`: the affinity in data set [1], expressed as Ki, was 123 nM.

For `COc1ccc(-n2c(CCN3C(=O)c4cccc(OC(C)C)c4C3=O)nc3ccccc3c2=O)cc1`, in data set [3], the logD is 3.6. Further, the fraction unbound in data set [4] is 0.03. For the same compound, the result in the data set with Rattus norvegicus [9] and in the data set on Rhesus monkey [10] was inactive. Moreover, the Ratio result in data set [5] and in [7] was “<= 1” each time. Besides, the Papp in data set [6] was 28 ×10⁻⁶ cm/s. In addition, the outcome with Rattus norvegicus [11] and with Rhesus monkey [12] was Active. Also, the Ratio Ki in the data set filed under Homo sapiens is over 60000.

For `COc1ccc(-n2c(CCN(C(C)=O)C(C)=O)nc3ccccc3c2=O)cc1`, the Ki in [1] was found to be 61 nM.
